Test results: ChEMBL document CHEMBL1138574, “Regioselective synthesis and stereochemical structure of anti-tumor active dispiro[3H-indole-3,2'-pyrrolidine-3',3''-piperidine]-2(1H),4''-diones” (2009)

Tests used:
Type in all cases: functional
Conditions in all cases: route intraperitoneal
[1] = tested on: Rattus norvegicus; assay: Antiinflammatory activity in Wister albino rat assessed as inhibition of carrageenan-induced paw oedema at 50 mg/kg, ip administered 1 hr before carrageenan challenge measured after 1 hr of induction of inflammation relative to control
[2] = tested on: Rattus norvegicus; assay: Antiinflammatory activity in Wister albino rat assessed as inhibition of carrageenan-induced paw oedema at 50 mg/kg, ip administered 1 hr before carrageenan challenge measured after 2 hrs of induction of inflammation relative to control
[3] = tested on: Rattus norvegicus; assay: Antiinflammatory activity in Wister albino rat assessed as inhibition of carrageenan-induced paw oedema at 50 mg/kg, ip administered 1 hr before carrageenan challenge measured after 3 hrs of induction of inflammation relative to control
[4] = tested on: Rattus norvegicus; assay: Antiinflammatory activity in Wister albino rat assessed as inhibition of carrageenan-induced paw oedema at 50 mg/kg, ip administered 1 hr before carrageenan challenge measured after 4 hrs of induction of inflammation relative to control
[5] = tested on: Rattus norvegicus; assay: Antiinflammatory activity in Wister albino rat assessed as inhibition of carrageenan-induced paw oedema at 50 mg/kg, ip administered 1 hr before carrageenan challenge measured after 24 hrs of induction of inflammation relative to control
[6] = tested on: Rattus norvegicus; assay: Antiinflammatory activity in Wister albino rat assessed as inhibition of carrageenan-induced paw oedema at 50 mg/kg, ip administered 1 hr before carrageenan challenge measured after 4 hrs of induction of inflammation relative to indomethacin
[7] = tested on: Rattus norvegicus; assay: Antiinflammatory activity in Wister albino rat assessed as inhibition of carrageenan-induced paw oedema at 10 mg/kg, ip administered 1 hr before carrageenan challenge measured after 1 hr of induction of inflammation relative to control
[8] = tested on: Rattus norvegicus; assay: Antiinflammatory activity in Wister albino rat assessed as inhibition of carrageenan-induced paw oedema at 10 mg/kg, ip administered 1 hr before carrageenan challenge measured after 2 hrs of induction of inflammation relative to control
[9] = tested on: Rattus norvegicus; assay: Antiinflammatory activity in Wister albino rat assessed as inhibition of carrageenan-induced paw oedema at 10 mg/kg, ip administered 1 hr before carrageenan challenge measured after 3 hrs of induction of inflammation relative to control
[10] = tested on: Rattus norvegicus; assay: Antiinflammatory activity in Wister albino rat assessed as inhibition of carrageenan-induced paw oedema at 10 mg/kg, ip administered 1 hr before carrageenan challenge measured after 4 hrs of induction of inflammation relative to control
[11] = tested on: Rattus norvegicus; assay: Antiinflammatory activity in Wister albino rat assessed as inhibition of carrageenan-induced paw oedema at 10 mg/kg, ip administered 1 hr before carrageenan challenge measured after 24 hrs of induction of inflammation relative to control

| SMILES | inhibition in vivo at 50 mg/kg [1] [%] | inhibition in vivo at 50 mg/kg [2] [%] | inhibition in vivo at 50 mg/kg [3] [%] | inhibition in vivo at 50 mg/kg [4] [%] | inhibition in vivo at 50 mg/kg [5] [%] | inhibition in vivo at 50 mg/kg [6] [%] | inhibition in vivo at 10 mg/kg [7] [%] | inhibition in vivo at 10 mg/kg [8] [%] | inhibition in vivo at 10 mg/kg [9] [%] | inhibition in vivo at 10 mg/kg [10] [%] | inhibition in vivo at 10 mg/kg [11] [%] |
| --- | --- | --- | --- | --- | --- | --- | --- | --- | --- | --- | --- |
| CN1C/C(=C\c2ccc(-c3cccs3)cc2)C(=O)[C@]2(C1)[C@@H](c1ccc(-c3cccs3)cc1)CN(C)[C@@]21C(=O)Nc2ccccc21 | 68 | 70.7 | 74.8 | 71.4 | 79.8 | 126 |  |  |  |  |  |
| CN1C/C(=C\c2ccc(Br)cc2)C(=O)[C@]2(C1)[C@@H](c1ccc(Br)cc1)CN(C)[C@@]21C(=O)N(C)c2ccccc21 | 53.5 | 49.1 | 47.6 | 46.8 | 83.5 | 82.8 |  |  |  |  |  |
| CN1C/C(=C\c2ccc(F)cc2)C(=O)[C@]2(C1)[C@@H](c1ccc(F)cc1)CN(C)[C@@]21C(=O)N(C)c2ccccc21 | 75.8 | 62 | 55.8 | 47.2 | 27.2 | 83.5 |  |  |  |  |  |
| Cc1ccc(/C=C2\CN(C)C[C@@]3(C2=O)[C@@H](c2ccc(C)cc2)CN(C)[C@@]32C(=O)N(C)c3ccccc32)cc1 | 53.5 | 62 | 65 | 68.8 | 57 | 122 |  |  |  |  |  |
| CN1C/C(=C\c2ccc(F)cc2)C(=O)[C@]2(C1)[C@@H](c1ccc(F)cc1)CN(C)[C@@]21C(=O)Nc2ccccc21 | 80.1 | 78.4 | 70.9 | 61.5 | 57 | 109 |  |  |  |  |  |
| CN1C/C(=C\c2ccccc2)C(=O)[C@]2(C1)[C@@H](c1ccccc1)CN(C)[C@@]21C(=O)N(C)c2ccccc21 | 68 | 70.7 | 75.6 | 68.8 | 26.5 | 122 |  |  |  |  |  |
| Cc1ccc(/C=C2\CN(C)C[C@@]3(C2=O)[C@@H](c2ccc(C)cc2)CN(C)[C@@]32C(=O)Nc3ccccc32)cc1 | 69.2 | 52.1 | 50.9 | 50.7 | 22.1 | 89.7 |  |  |  |  |  |
| CN1C/C(=C\c2ccccc2)C(=O)[C@]2(C1)[C@@H](c1ccccc1)CN(C)[C@@]21C(=O)Nc2ccccc21 | 77 | 73.3 | 71.4 | 70.9 | 65.1 | 126 |  |  |  |  |  |
| CN1C/C(=C\c2ccc(Br)cc2)C(=O)[C@]2(C1)[C@@H](c1ccc(Br)cc1)CN(C)[C@@]21C(=O)Nc2ccccc21 | 77.7 | 69.3 | 65.2 | 66.8 | 82.7 | 118 |  |  |  |  |  |
| COc1ccc2c(c1)c(CC(=O)O)c(C)n2C(=O)c1ccc(Cl)cc1 [INDOMETHACIN] |  |  |  |  |  |  | 72.9 | 70.7 | 61.3 | 56.5 | 57 |
